# Test results published in US11420958B2, “Aryl and heteroaryl substituted indole compounds” (BRISTOL-MYERS SQUIBB COMPANY, priority 2017, dated 2022).
# pIC50: −log10 of the molar value.
# Tests used:
# Format in all cases: cell-based
# human TLR7 = human TLR7 (Homo sapiens (Human), UniProt Q9NYK1); assay: TLR7 inhibition reporter assay (HEK-Blue, SEAP); conditions: HEK-Blue cells overexpressing human TLR7, gardiquimod 7.5 μM stimulation
# In short: (§1)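 Reporter cells, NF-κB/AP-1-driven SEAP; cmpd 0.05 nM–50 μM final, 30 min RT pre-treat; stim gardiquimod 7.5 μM (TLR7), R848 15.9 μM (TLR8), ODN2006 5 nM (TLR9); 22 h 37 °C; % inhibition of SEAP signal.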
# human TLR8 = human TLR8 (Homo sapiens (Human), UniProt Q9NR97); assay: TLR8 inhibition reporter assay (HEK-Blue, SEAP); conditions: HEK-Blue cells overexpressing human TLR8, R848 15.9 μM stimulation
# Chain of human TLR8 (Q9NR97 27-1041): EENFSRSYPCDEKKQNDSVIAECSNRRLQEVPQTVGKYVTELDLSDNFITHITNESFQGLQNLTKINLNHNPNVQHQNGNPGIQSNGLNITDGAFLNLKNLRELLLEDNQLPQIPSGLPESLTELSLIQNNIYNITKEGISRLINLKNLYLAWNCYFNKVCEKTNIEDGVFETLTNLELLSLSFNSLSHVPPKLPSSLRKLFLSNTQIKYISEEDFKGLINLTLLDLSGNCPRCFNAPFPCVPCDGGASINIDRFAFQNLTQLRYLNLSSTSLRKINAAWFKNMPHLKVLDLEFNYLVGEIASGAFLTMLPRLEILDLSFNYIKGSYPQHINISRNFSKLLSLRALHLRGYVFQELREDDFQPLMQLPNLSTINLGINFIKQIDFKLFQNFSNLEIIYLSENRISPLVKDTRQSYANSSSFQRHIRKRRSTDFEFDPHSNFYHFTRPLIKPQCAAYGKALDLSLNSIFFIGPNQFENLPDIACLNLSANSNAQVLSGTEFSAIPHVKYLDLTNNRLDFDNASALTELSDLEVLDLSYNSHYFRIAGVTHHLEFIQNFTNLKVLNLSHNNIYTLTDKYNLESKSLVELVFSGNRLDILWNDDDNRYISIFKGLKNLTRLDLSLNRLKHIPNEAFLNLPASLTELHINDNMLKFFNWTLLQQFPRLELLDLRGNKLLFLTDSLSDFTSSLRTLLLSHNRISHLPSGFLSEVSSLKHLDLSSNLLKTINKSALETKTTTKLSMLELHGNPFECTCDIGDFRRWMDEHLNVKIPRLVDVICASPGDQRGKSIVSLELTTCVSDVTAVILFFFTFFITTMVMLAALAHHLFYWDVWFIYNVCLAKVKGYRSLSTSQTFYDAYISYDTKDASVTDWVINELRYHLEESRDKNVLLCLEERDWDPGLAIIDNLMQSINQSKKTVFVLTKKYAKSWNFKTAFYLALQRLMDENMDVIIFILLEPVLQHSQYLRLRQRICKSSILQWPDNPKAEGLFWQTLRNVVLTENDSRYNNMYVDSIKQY
# In short: as §1
# human TLR9 = human TLR9 (Homo sapiens (Human), UniProt Q9NR96); assay: TLR9 inhibition reporter assay (HEK-Blue, SEAP); conditions: HEK-Blue cells overexpressing human TLR9, ODN2006 5 nM stimulation
# Chain of human TLR9 (Q9NR96 26-1032): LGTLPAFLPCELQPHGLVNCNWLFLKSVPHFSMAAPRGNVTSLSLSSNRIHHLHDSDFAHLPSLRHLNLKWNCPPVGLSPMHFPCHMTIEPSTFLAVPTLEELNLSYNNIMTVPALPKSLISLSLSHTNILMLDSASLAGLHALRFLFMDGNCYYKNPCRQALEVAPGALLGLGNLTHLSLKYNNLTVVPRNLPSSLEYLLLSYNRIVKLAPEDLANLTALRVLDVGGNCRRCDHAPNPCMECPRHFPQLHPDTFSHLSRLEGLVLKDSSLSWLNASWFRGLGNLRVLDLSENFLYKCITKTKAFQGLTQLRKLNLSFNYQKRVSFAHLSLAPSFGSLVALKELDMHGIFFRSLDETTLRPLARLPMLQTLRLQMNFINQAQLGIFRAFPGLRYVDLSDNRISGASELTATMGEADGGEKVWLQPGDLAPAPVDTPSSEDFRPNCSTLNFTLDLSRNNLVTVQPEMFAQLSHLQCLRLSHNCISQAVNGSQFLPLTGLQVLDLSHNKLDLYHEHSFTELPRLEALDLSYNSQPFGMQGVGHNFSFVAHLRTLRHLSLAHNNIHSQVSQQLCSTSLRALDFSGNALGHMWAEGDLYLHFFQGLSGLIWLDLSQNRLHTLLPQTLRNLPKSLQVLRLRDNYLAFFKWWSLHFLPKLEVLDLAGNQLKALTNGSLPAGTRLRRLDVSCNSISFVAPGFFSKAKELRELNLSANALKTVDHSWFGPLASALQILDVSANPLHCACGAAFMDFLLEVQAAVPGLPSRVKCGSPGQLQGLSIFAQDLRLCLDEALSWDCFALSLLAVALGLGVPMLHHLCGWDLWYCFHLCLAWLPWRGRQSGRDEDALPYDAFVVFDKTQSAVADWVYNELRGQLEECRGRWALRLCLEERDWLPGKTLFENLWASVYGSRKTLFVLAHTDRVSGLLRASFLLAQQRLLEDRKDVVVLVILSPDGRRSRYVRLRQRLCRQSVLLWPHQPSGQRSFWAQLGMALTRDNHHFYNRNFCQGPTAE
# In short: as §1
# Chain of human TLR7 (Q9NYK1 27-1049): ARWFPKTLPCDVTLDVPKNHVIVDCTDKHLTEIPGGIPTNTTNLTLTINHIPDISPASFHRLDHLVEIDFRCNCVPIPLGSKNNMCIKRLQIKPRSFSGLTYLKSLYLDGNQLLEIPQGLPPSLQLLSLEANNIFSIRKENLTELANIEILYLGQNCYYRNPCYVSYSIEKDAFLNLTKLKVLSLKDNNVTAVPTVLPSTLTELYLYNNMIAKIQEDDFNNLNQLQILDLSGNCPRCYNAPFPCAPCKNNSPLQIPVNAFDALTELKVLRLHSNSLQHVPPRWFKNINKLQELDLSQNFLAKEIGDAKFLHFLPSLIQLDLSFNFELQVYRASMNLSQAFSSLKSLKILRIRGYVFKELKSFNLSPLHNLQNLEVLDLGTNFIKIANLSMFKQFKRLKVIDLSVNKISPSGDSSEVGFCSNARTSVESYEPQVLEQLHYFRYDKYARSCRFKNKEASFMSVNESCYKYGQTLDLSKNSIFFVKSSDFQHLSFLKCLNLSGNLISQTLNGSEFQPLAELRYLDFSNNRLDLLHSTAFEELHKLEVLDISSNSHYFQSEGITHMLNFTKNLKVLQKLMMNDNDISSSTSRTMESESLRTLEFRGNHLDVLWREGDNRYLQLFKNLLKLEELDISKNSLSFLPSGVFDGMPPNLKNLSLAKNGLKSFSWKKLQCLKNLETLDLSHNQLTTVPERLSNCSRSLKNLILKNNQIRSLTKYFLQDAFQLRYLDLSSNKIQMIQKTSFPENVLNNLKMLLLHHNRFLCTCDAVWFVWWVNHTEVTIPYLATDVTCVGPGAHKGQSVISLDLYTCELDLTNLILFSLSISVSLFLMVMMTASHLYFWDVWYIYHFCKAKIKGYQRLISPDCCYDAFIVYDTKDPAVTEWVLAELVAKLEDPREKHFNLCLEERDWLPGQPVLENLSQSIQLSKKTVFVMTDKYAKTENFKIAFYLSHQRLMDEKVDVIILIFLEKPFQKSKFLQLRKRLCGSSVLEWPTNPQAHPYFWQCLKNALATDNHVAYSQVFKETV
pIC50 (human TLR7),pIC50 (human TLR8),pIC50 (human TLR9),SMILES
6.04,6.66,< 4.30,"CC(C)c1c(-c2ccnc3[nH]ncc23)[nH]c2ccc(-c3ccc4[nH]c(=O)cc(O)c4c3)cc12 [Example 394, 4-hydroxy-6-(3-isopropyl-2-(1H-pyrazolo[3,4-b]pyridin-4-yl)-1H-indol-5-yl)quinolin-2(1H)-one]"
7.62,8.46,5.25,"Cc1cc(-c2[nH]c3ccc(-c4nc5c(s4)CN(CC(=O)N(C)C)CC5)cc3c2C(C)C)cc(C)n1 [Example 309, 2-(2-(2-(2,6-dimethylpyridin-4-yl)-3-isopropyl-1H-indol-5-yl)-6,7-dihydrothiazolo[5,4-c]pyridin-5(4H)-yl)-N,N-dimethylacetamide]"
7.31,7.59,5.96,"Cc1cc(-c2[nH]c3ccc(-c4nc(C(=O)NCC5CCNC5)co4)cc3c2C(C)C)cc(C)n1 (stereo not drawn) [Example 276, 2-(2-(2,6-dimethylpyridin-4-yl)-3-isopropyl-1H-indol-5-yl)-N-(pyrrolidin-3-ylmethyl)oxazole-4-carboxamide]"
6.71,7.92,4.84,"CC(C)c1c(-c2ccnc3[nH]ncc23)[nH]c2ccc(-c3ccnn3C)cc12 [Example 428, 4-(3-isopropyl-5-(1-methyl-1H-pyrazol-5-yl)-1H-indol-2-yl)-1H-pyrazolo[3,4-b]pyridine]"
6.80,7.49,< 4.30,"CNc1nnc(-c2ccc3[nH]c(-c4ccnc(C)c4)c(C(C)C)c3c2)o1 [Example 346, 5-(3-isopropyl-2-(2-methylpyridin-4-yl)-1H-indol-5-yl)-N-methyl-1,3,4-oxadiazol-2-amine]"
8.22,8.82,6.31,"Cc1cc(-c2[nH]c3ccc(-c4cc5c(s4)CN(C)CC5)cc3c2C(C)C)cc(C)n1 [Example 361, 2-(2-(2,6-dimethylpyridin-4-yl)-3-isopropyl-1H-indol-5-yl)-6-methyl-4,5,6,7-tetrahydrothieno[2,3-c]pyridine]"
5.41,6.43,< 4.30,"CCc1c(-c2ccc(OC)c(OC)c2)[nH]c2ccc(-c3cccnc3)cc12 [Example 466, 2-(3,4-dimethoxyphenyl)-3-ethyl-5-(pyridin-3-yl)-1H-indole]"
9.10,8.64,6.82,"Cc1cc(-c2[nH]c3ccc(-c4nc5c(s4)CN(C(=O)CN(C)C)CC5)cc3c2C(C)C)cc(C)n1 [Example 363, 2-(dimethylamino)-1-(2-(2-(2,6-dimethylpyridin-4-yl)-3-isopropyl-1H-indol-5-yl)-6,7-dihydrothiazolo[5,4-c]pyridin-5(4H)-yl)ethan-1-one]"
6.15,7.49,4.63,"CCc1c(-c2ccnc(C)c2)[nH]c2ccc(-c3noc(CN(C)C)n3)cc12 [Example 453, 1-(3-(3-ethyl-2-(2-methylpyridin-4-yl)-1H-indol-5-yl)-1,2,4-oxadiazol-5-yl)-N,N-dimethylmethanamine]"

# More lines, now with the values behind:
SMILES,pIC50 (human TLR7),pIC50 (human TLR8),pIC50 (human TLR9)
"COc1ccc(-c2[nH]c3ccc(-c4nnc(C5CCN(C(=O)CN(C)C)CC5)[nH]4)cc3c2C(C)C)cc1OC [Example 131, 1-(4-(5-(2-(3,4-dimethoxyphenyl)-3-isopropyl-1H-indol-5-yl)-4H-1,2,4-triazol-3-yl)piperidin-1-yl)-2-(dimethylamino)ethan-1-one]",7.54,7.43,5.19
"Cc1cc(-c2[nH]c3ccc(-c4nnc(C5CCCNC5)[nH]4)cc3c2C(C)C)ccn1 (stereo not drawn) [Example 178, 3-isopropyl-2-(2-methylpyridin-4-yl)-5-(5-(piperidin-3-yl)-4H-1,2,4-triazol-3-yl)-1H-indole]",6.66,7.92,5.40
"CC(=O)N1CCN(Cc2nnc(-c3ccc4[nH]c(-c5ccnc6[nH]ncc56)c(C(C)C)c4c3)o2)CC1 [Example 153, 1-(4-((5-(3-isopropyl-2-(1H-pyrazolo[3,4-b]pyridin-4-yl)-1H-indol-5-yl)-1,3,4-oxadiazol-2-yl)methyl)piperazin-1-yl)ethan-1-one]",5.80,6.86,< 4.30
"CC(C)c1c(-c2ccnc3n[nH]cc23)[nH]c2ccc(-c3nccs3)cc12 [Example 181, 2-(3-isopropyl-2-(2H-pyrazolo[3,4-b]pyridin-4-yl)-1H-indol-5-yl)thiazole]",6.17,7.44,4.45
"COc1ccc(-c2[nH]c3ccc(-c4cccc(C(=O)N5CCCC5C)c4)cc3c2CC(F)(F)F)cc1OC (stereo not drawn) [Example 32, (3-(2-(3,4-dimethoxyphenyl)-3-(2,2,2-trifluoroethyl)-1H-indol-5-yl)phenyl)(2-methylpyrrolidin-1-yl)methanone]",5.58,5.95,< 4.30
"CC(C)c1c(-c2ccnc3[nH]ncc23)[nH]c2ccc(-c3nnc(C4CCN(C(=O)CN(C)C)CC4)o3)cc12 [Example 86, 2-(dimethylamino)-1-(4-(5-(3-isopropyl-2-(1H-pyrazolo[3,4-b]pyridin-4-yl)-1H-indol-5-yl)-1,3,4-oxadiazol-2-yl)piperidin-1-yl)ethan-1-one]",7.07,8.21,6.49
"Cc1cc(-c2[nH]c3ccc(-c4nnc(CN5CCN(C)CC5)o4)cc3c2C(C)C)ccn1 [Example 79, 2-(3-isopropyl-2-(2-methylpyridin-4-yl)-1H-indol-5-yl)-5-((4-methylpiperazin-1-yl)methyl)-1,3,4-oxadiazole]",7.19,8.12,5.90
"Cc1cc(-c2[nH]c3ccc(-c4nnc(Cc5c[nH]c6ccccc56)o4)cc3c2C(C)C)ccn1 [Example 73, 2-((1H-indol-3-yl)methyl)-5-(3-isopropyl-2-(2-methylpyridin-4-yl)-1H-indol-5-yl)-1,3,4-oxadiazole]",5.64,5.89,< 4.30
"CNCCNc1ccc(-c2ccc3[nH]c(-c4cc(C)nc(C)c4)c(C(C)C)c3c2)cn1 [Example 239, N1-(5-(2-(2,6-dimethylpyridin-4-yl)-3-isopropyl-1H-indol-5-yl)pyridin-2-yl)-N2-methylethane-1,2-diamine]",8.32,8.66,6.23
"COc1ccc(-c2[nH]c3ccc(-c4nnc(CN5CCCN(C(C)=O)CC5)o4)cc3c2C(C)C)cc1OC [Example 119, 1-(4-((5-(2-(3,4-dimethoxyphenyl)-3-isopropyl-1H-indol-5-yl)-1,3,4-oxadiazol-2-yl)methyl)-1,4-diazepan-1-yl)ethan-1-one]",6.97,7.00,4.84
"Cc1cc(-c2[nH]c3ccc(-c4cnc(C5CCNCC5)[nH]4)cc3c2C(C)C)ccn1 [Example 254, 3-isopropyl-2-(2-methylpyridin-4-yl)-5-(2-(piperidin-4-yl)-1H-imidazol-5-yl)-1H-indole]",7.06,7.11,5.92
"CNCCc1nnc(-c2ccc3[nH]c(-c4ccc5ncnn5c4)c(C(C)C)c3c2)o1 [Example 226, 2-(5-(2-([1,2,4]triazolo[1,5-a]pyridin-6-yl)-3-isopropyl-1H-indol-5-yl)-1,3,4-oxadiazol-2-yl)-N-methylethan-1-amine]",7.34,8.26,5.97
"CCc1c(-c2ccc(OC)c(OC)c2)[nH]c2ccc(-c3nnc(C(=O)NC4CCN(C(C)C)CC4)o3)cc12 [Example 39, 5-(2-(3,4-dimethoxyphenyl)-3-ethyl-1H-indol-5-yl)-N-(1-isopropylpiperidin-4-yl)-1,3,4-oxadiazole-2-carboxamide]",7.03,8.10,6.36
"Cc1cc(-c2[nH]c3ccc(-c4nc(C(=O)NCC5CCNC5)co4)cc3c2C(C)C)ccn1 (stereo not drawn) [Example 197, 2-(3-isopropyl-2-(2-methylpyridin-4-yl)-1H-indol-5-yl)-N-(pyrrolidin-3-ylmethyl)oxazole-4-carboxamide]",6.36,7.21,4.89
"CC(C)c1c(-c2ccnc3[nH]ncc23)[nH]c2ccc(-c3nnc(C(=O)NC4CCN(C(C)C)CC4)o3)cc12 [Example 84, 5-(3-isopropyl-2-(1H-pyrazolo[3,4-b]pyridin-4-yl)-1H-indol-5-yl)-N-(1-isopropylpiperidin-4-yl)-1,3,4-oxadiazole-2-carboxamide]",7.06,8.22,6.63
"Cc1cc(-c2[nH]c3ccc(-c4nnc(CCc5cccnc5)o4)cc3c2C(C)C)ccn1 [Example 262, 2-(3-isopropyl-2-(2-methylpyridin-4-yl)-1H-indol-5-yl)-5-(2-(pyridin-3-yl)ethyl)-1,3,4-oxadiazole]",6.54,7.22,5.23
"COc1ccc(-c2[nH]c3ccc(-c4nnc(C(=O)N5CC[C@H](N(C)C)C5)o4)cc3c2C(C)C)cc1OC [Example 98, (S)-(5-(2-(3,4-dimethoxyphenyl)-3-isopropyl-1H-indol-5-yl)-1,3,4-oxadiazol-2-yl)(3-(dimethylamino)pyrrolidin-1-yl)methanone]",7.17,7.77,5.58
"CNCCN1CCC(c2nnc(-c3ccc4[nH]c(-c5ccc(OC)c(OC)c5)c(C(C)C)c4c3)o2)CC1 [Example 24, 2-(4-(5-(2-(3,4-dimethoxyphenyl)-3-isopropyl-1H-indol-5-yl)-1,3,4-oxadiazol-2-yl)piperidin-1-yl)-N-methylethan-1-amine]",7.25,8.43,6.75
